From patent US20220362262A1, “METHODS AND COMPOSITIONS FOR TISSUE REGENERATION” (Institute of Zoology, Chinese Academy of Sciences, priority 2019, published 2022)
“Also recorded” adds a separate entry of the source.

Tests used:
[1] = tested on: cryoinjured TA muscle; assay: Muscle regeneration after cryoinjury: regenerative index, myogenic proteins, myofiber diameter, grip strength after bolus injection; type: in vivo, mice; conditions: TA muscle 6.5 days post-injury; single bolus; combinations: prostaglandin at day 0, rosiglitazone at day 1; relative to DMSO vehicle
Excerpt: (§1) Some tissues were flash frozen for cryosectioning.

[2] = tested on: muscle stem cells and myoblasts in gastrocnemius, quadriceps and TA muscle; assay: Stem cell and myoblast activation in skeletal muscles without injury, immunofluorescence 2 days after single bolus; type: in vivo, mice
Excerpt: as §1

[3] = TA muscle, 2 days after intramuscular single bolus, with or without HGF
[4] = gastrocnemius muscle, 2 days after intraperitoneal single bolus, with or without fenofibrate or WY-14643
[5] = gastrocnemius muscle, 2 days after intramuscular single bolus, PPARD drugs

Molecule: CCCCC[C@H](O)/C=C/[C@@H]1[C@@H](CCCCCCC(=O)O)[C@@H](O)C[C@H]1O [PGF1a]
- regenerative index (fraction of nuclei in embryonic MHC-positive myofibers) [1]: significantly decrease muscle regeneration; also recorded: slightly decreased regeneration

Molecule: CCCCC[C@H](O)/C=C/[C@H]1C(=O)C[C@H](O)[C@@H]1C/C=C\CCCC(=O)O [PGD2, prostaglandin D2]
- regenerative index (fraction of nuclei in embryonic MHC-positive myofibers) [1]: slightly but significantly increase muscle regeneration; also recorded: slightly increased regeneration

Molecule: CCCCC[C@@H](/C=C/[C@H]1[C@H](CCCCCCC(=O)O)[C@H]2C[C@@H]1OO2)OO [PGG1]
- regenerative index (fraction of nuclei in embryonic MHC-positive myofibers) [1]: no significant effect; also recorded: did not cause significant changes

Molecule: HGF: hepatocyte growth factor
- percentage fraction of proliferative muscle stem cells (Pax7-positive Ki67-positive cells) [2, 3]: significantly increased; also recorded: could increase
- percentage fraction of proliferative myoblasts (MyoD-positive Ki67-positive cells) [2, 3]: slightly increased; also recorded: could increase

Molecule: CC(C)OC(=O)C(C)(C)Oc1ccc(C(=O)c2ccc(Cl)cc2)cc1 [fenofibrate]
- percentage fraction of myoblasts (MyoD-positive cells) [2, 4]: no effect
- percentage fraction of proliferative myoblasts (MyoD-positive Ki67-positive cells) [2, 4]: no effect

Molecule: Cc1cc(SCc2sc(-c3ccc(C(F)(F)F)c(F)c3)nc2C)ccc1OCC(=O)O [GW0742]
- percentage fraction of proliferative muscle stem cells (Pax7-positive Ki67-positive cells) [2, 5]: surprisingly decreased
- percentage fraction of proliferative myoblasts (MyoD-positive Ki67-positive cells) [2, 5]: no effect
- regenerative index (fraction of nuclei in embryonic MHC-positive myofibers) [1]: significantly decrease muscle regeneration

Molecule: O=C(NCCS(=O)(=O)c1ccc(C(F)(F)F)cn1)c1ccc(Cl)cc1 [GSK3787]
- percentage fraction of proliferative muscle stem cells (Pax7-positive Ki67-positive cells) [2, 5]: no effect
- percentage fraction of proliferative myoblasts (MyoD-positive Ki67-positive cells) [2, 5]: slightly increased
- regenerative index (fraction of nuclei in embryonic MHC-positive myofibers) [1]: not
